Test results as given in patent publication US7960339B2, “Antimicrobial peptides” (Österreichische Akademie der Wissenschaften, priority 2006, dated 2011).
Peptide text beside a SMILES is read from it.

Test system: C. neoformans ATCC 32045
Format: cell-based
Conditions: ATCC 32045, 72 h
Protocol: C. neoformans ATCC 32045 cultures were maintained on yeast medium (YM; Difco Laboratories, Detroit, Mich.) agar plates at 4° C. Prior to the assay, the cultures were grown on agar plates and incubated for 72 hrs at 26° C. Two colonies of these newly grown fungal cultures were then inoculated in 5 ml of 2×YM broth, vortexed, and diluted 10-fold in 2×YM broth, for an approximate final assay concentration of 1×105 to 5×10^5 CFU/ml. In 96-well tissue culture plates, fungal suspensions in 2×YM broth were added to the peptides dispensed at concentrations ranging from 1 mg/ml to 1 μg/ml derived from serial twofold dilutions in sterile water. The plates were then incubated for 72 hrs at 26° C. The relative percent growth of the fungi found for each test sample was determined by the optical density at 620 nm (OD620) by using a Titertek Multiskan Plus apparatus. […] The IC50 were calculated by using a sigmoidal curve-fitting software program (Graphpad Prism; ISI Software, San Diego, Calif.).

Row | average IC50 | average MIC | Compound
1 | 6 µg/mL | 32 µg/mL | CC[C@H](C)[C@H](NC(=O)[C@H](CCC(N)=O)NC(=O)[C@H](CCCNC(=N)N)NC(=O)[C@H](CCCNC(=N)N)NC(=O)[C@H](Cc1c[nH]c2ccccc12)NC(=O)[C@H](Cc1ccccc1)NC(=O)[C@@H]1CCCN1)C(=O)N[C@@H](CCCNC(=N)N)C(=O)N[C@@H](CCCNC(=N)N)C(N)=O [VS1-26, PFWRRQIRR-NH2] (H-PFWRRQIRR-NH2; N-terminus assumed)
2 | 8 µg/mL | 32 µg/mL | CC[C@H](C)[C@H](NC(=O)[C@H](CCCNC(=N)N)NC(=O)[C@H](C)NC(=O)[C@H](CCCNC(=N)N)NC(=O)[C@H](Cc1c[nH]c2ccccc12)NC(=O)[C@H](Cc1ccccc1)NC(=O)[C@@H]1CCCN1)C(=O)N[C@@H](CCCNC(=N)N)C(=O)N[C@@H](CCCNC(=N)N)C(N)=O [VS1-27, PFWRARIRR-NH2] (H-PFWRARIRR-NH2; N-terminus assumed)
3 | 8 µg/mL | 32 µg/mL | CC[C@H](C)[C@H](NC(=O)[C@H](CCCNC(=N)N)NC(=O)[C@H](CCCCN)NC(=O)[C@H](CCCNC(=N)N)NC(=O)[C@H](Cc1c[nH]c2ccccc12)NC(=O)[C@H](Cc1ccccc1)NC(=O)[C@@H]1CCCN1)C(=O)N[C@@H](CCCNC(=N)N)C(=O)N[C@@H](CCCNC(=N)N)C(N)=O [VS1-28, PFWRKRIRR-NH2] (H-PFWRKRIRR-NH2; N-terminus assumed)
4 | 9 µg/mL | 32 µg/mL | CC(C)C[C@H](NC(=O)[C@H](CCCNC(=N)N)NC(=O)[C@H](CCCCN)NC(=O)[C@H](CCCNC(=N)N)NC(=O)[C@H](Cc1c[nH]c2ccccc12)NC(=O)[C@H](Cc1ccccc1)NC(=O)[C@@H]1CCCN1)C(=O)N[C@@H](CCCNC(=N)N)C(=O)N[C@@H](CCCNC(=N)N)C(N)=O [VS1-29, PFWRKRLRR-NH2] (H-PFWRKRLRR-NH2; N-terminus assumed)
5 | 10 µg/mL | 32 µg/mL | CC(C)C[C@H](NC(=O)[C@H](CCCCN)NC(=O)[C@H](CCCCN)NC(=O)[C@H](CCCNC(=N)N)NC(=O)[C@H](Cc1c[nH]c2ccccc12)NC(=O)[C@H](Cc1ccccc1)NC(=O)[C@@H]1CCCN1)C(=O)N[C@@H](CCCCN)C(=O)N[C@@H](CCCNC(=N)N)C(N)=O [VS1-30, PFWRKKLKR-NH2] (H-PFWRKKLKR-NH2; N-terminus assumed)

More lines, now with the values behind:

Row | Compound | average IC50 | average MIC
6 | CC[C@H](C)[C@H](NC(=O)[C@H](CCCNC(=N)N)NC(=O)[C@@H](NC(=O)[C@H](CC(N)=O)NC(=O)[C@H](CCCNC(=N)N)NC(=O)[C@H](CCC(N)=O)NC(=O)[C@H](Cc1c[nH]c2ccccc12)NC(=O)[C@@H](N)Cc1ccccc1)[C@@H](C)CC)C(=O)N[C@@H](CCCNC(=N)N)C(=O)N[C@@H](CCCNC(=N)N)C(N)=O [VS1-13, FWQRNIRIRR-NH2] (H-FWQRNIRIRR-NH2; N-terminus assumed) | 8 µg/mL | 32 µg/mL
7 | CC[C@H](C)[C@H](NC(=O)[C@H](CCCNC(=N)N)NC(=O)[C@@H](NC(=O)[C@H](CCCNC(=N)N)NC(=O)[C@@H](N)CCCNC(=N)N)[C@@H](C)CC)C(=O)N[C@@H](CC(N)=O)C(=O)N[C@@H](CCCNC(=N)N)C(=O)N[C@@H](CCC(N)=O)C(=O)N[C@@H](Cc1c[nH]c2ccccc12)C(=O)N[C@@H](Cc1ccccc1)C(N)=O [VS1-14, RRIRINRQWF-NH2] (H-RRIRINRQWF-NH2; N-terminus assumed) | 12 µg/mL | 32 µg/mL
8 | CC[C@H](C)[C@H](NC(=O)[C@H](CCCNC(=N)N)NC(=O)[C@H](CCCCN)NC(=O)[C@H](Cc1c[nH]c2ccccc12)NC(=O)[C@@H](N)CCCNC(=N)N)C(=O)N[C@@H](CC(N)=O)C(=O)N[C@@H](CCCNC(=N)N)C(=O)N[C@@H](CCC(N)=O)C(=O)N[C@@H](Cc1c[nH]c2ccccc12)C(=O)N[C@@H](Cc1ccccc1)C(N)=O [VS1-16, RWKRINRQWF-NH2] (H-RWKRINRQWF-NH2; N-terminus assumed) | 13 µg/mL | 32 µg/mL
9 | CC[C@H](C)[C@H](NC(=O)[C@H](CCCNC(=N)N)NC(=O)[C@H](CCCNC(=N)N)NC(=O)[C@H](CCC(N)=O)NC(=O)[C@H](Cc1c[nH]c2ccccc12)NC(=O)[C@@H](N)Cc1ccccc1)C(=O)N[C@@H](CCCNC(=N)N)C(=O)N[C@@H](CCCCN)C(=O)N[C@@H](Cc1c[nH]c2ccccc12)C(=O)N[C@@H](CCCNC(=N)N)C(N)=O [VS1-17, FWQRRIRKWR-NH2] (H-FWQRRIRKWR-NH2; N-terminus assumed) | 5 µg/mL | 32 µg/mL
10 | CC[C@H](C)[C@H](NC(=O)[C@H](CC(N)=O)NC(=O)[C@H](CCCNC(=N)N)NC(=O)[C@H](CCC(N)=O)NC(=O)[C@H](Cc1c[nH]c2ccccc12)NC(=O)[C@H](Cc1ccccc1)NC(=O)[C@@H]1CCCN1)C(=O)N[C@@H](CCCNC(=N)N)C(=O)N[C@@H](CCCCN)C(=O)N[C@@H](Cc1c[nH]c2ccccc12)C(=O)N[C@@H](CCCNC(=N)N)C(N)=O [VS1-19, PFWQRNIRKWR-NH2] (H-PFWQRNIRKWR-NH2; N-terminus assumed) | 3 µg/mL | 8 µg/mL
11 | CC[C@H](C)[C@H](NC(=O)[C@H](CC(N)=O)NC(=O)[C@H](CCCNC(=N)N)NC(=O)[C@H](Cc1c[nH]c2ccccc12)NC(=O)[C@@H](N)Cc1ccccc1)C(=O)N[C@@H](CCCNC(=N)N)C(=O)N[C@@H](CCCCN)C(=O)N[C@@H](Cc1c[nH]c2ccccc12)C(=O)N[C@@H](CCCNC(=N)N)C(N)=O [VS1-20, FWRNIRKWR-NH2] (H-FWRNIRKWR-NH2; N-terminus assumed) | 4 µg/mL | 16 µg/mL
12 | CC[C@H](C)[C@H](NC(=O)[C@H](CCCNC(=N)N)NC(=O)[C@H](Cc1c[nH]c2ccccc12)NC(=O)[C@@H](N)Cc1ccccc1)C(=O)N[C@@H](CCCNC(=N)N)C(=O)N[C@@H](CCCCN)C(=O)N[C@@H](Cc1c[nH]c2ccccc12)C(=O)N[C@@H](CCCNC(=N)N)C(N)=O [VS1-21, FWRIRKWR-NH2] (H-FWRIRKWR-NH2; N-terminus assumed) | 4 µg/mL | 16 µg/mL
13 | CC[C@H](C)[C@H](NC(=O)[C@H](CCCNC(=N)N)NC(=O)[C@@H](NC(=O)[C@H](CCCNC(=N)N)NC(=O)[C@H](Cc1c[nH]c2ccccc12)NC(=O)[C@H](Cc1ccccc1)NC(=O)[C@@H]1CCCN1)[C@@H](C)CC)C(=O)N[C@@H](CCCNC(=N)N)C(=O)N[C@@H](CCCNC(=N)N)C(=O)N[C@@H](CC(=O)O)C(N)=O [VS1-23, PFWRIRIRRD-NH2] (H-PFWRIRIRRD-NH2; N-terminus assumed) | 4 µg/mL | 8 µg/mL
14 | CC[C@H](C)[C@H](NC(=O)[C@H](CCCNC(=N)N)NC(=O)[C@@H](NC(=O)[C@H](CCCNC(=N)N)NC(=O)[C@H](Cc1c[nH]c2ccccc12)NC(=O)[C@H](Cc1ccccc1)NC(=O)[C@H](Cc1ccccc1)NC(=O)[C@@H]1CCCN1)[C@@H](C)CC)C(=O)N[C@@H](CCCNC(=N)N)C(=O)N[C@@H](CCCNC(=N)N)C(N)=O [VS1-24, PFFWRIRIRR-NH2] (H-PFFWRIRIRR-NH2; N-terminus assumed) | 3 µg/mL | 8 µg/mL
15 | CC[C@H](C)[C@H](NC(=O)[C@H](CCCNC(=N)N)NC(=O)[C@H](CCC(N)=O)NC(=O)[C@H](CCCNC(=N)N)NC(=O)[C@H](Cc1c[nH]c2ccccc12)NC(=O)[C@H](Cc1ccccc1)NC(=O)[C@@H]1CCCN1)C(=O)N[C@@H](CCCNC(=N)N)C(=O)N[C@@H](CCCNC(=N)N)C(N)=O [VS1-25, PFWRQRIRR-NH2] (H-PFWRQRIRR-NH2; N-terminus assumed) | 6 µg/mL | 32 µg/mL
